US20240116971A1, “NMN AND DERIVATIVES FOR ITS USE IN THE TREATMENT OF DEPRESSION AND/OR ANXIETY IN PATIENTS HAVING A FORM OF PARKINSONISM” (Nuvamid SA, priority 2021, published 2024)

Columns and labels:
Assay type in all cases: in vivo, human
[1] = Blood level of NMN and NAD
Source text: The secondary objectives describe the characteristics of the patients who participated in the research, and aim at studying the pharmacokinetics of NMN in daily oral use and its impact on increasing NAD+ levels, and, in a preliminary way, at evaluating the potential benefits of NMN supplementation on the symptomatology related to multi-systemic atrophy syndrome MSA such as activities of daily living, motor disorders, orthostatic hypotension and autonomy using the validated […] scale. [table] Also, an aliquot of serum is stored at the laboratory at -80° C. for the determination of the patient's physiological NAD+ (Baseline) level by the promoter. The results are sent to the investigating responsible for checking these parameters (regarding the laboratory's standards) and validating or not the patient's eligibility. […] Also, an aliquot of acidified whole blood is stored at the AML at -80° C. for the determination of NMN metabolites. The hemodynamic constants (BP and HR standing up/lying down) are taken and entered in the patient's follow-up notebook by the nurse. The nurse also questions the patient on the possible occurrence of adverse events and checks the patient's compliance with treatment by filling in his or her follow-up notebook and pill box. On receipt, the investigating physician check the results: the blood parameters must be within the reference value limits and/or judged by the investigating physician as not clinically relevant. Otherwise, the patient is summoned without delay by the investigating physician to leave the study prematurely.

MSA patients [2] = assay: Efficacy on the UMSARS scale; details: for UMSARS activities of daily living sub-score, change: score 0 to 48, lower is better, p-value >0.05
Method: For each eligible patient: during the first visit, the investigator carries out a specific complementary clinical examination MSA (validated specific scale: UMSARS) in order to score the basal level of the patient at inclusion on 4 axes: activities of daily living (12 items), motor level (14 items), orthostatic hypotension [4 measures: BP standing/sleeping (2 min); CF standing/sleeping (2 min) and orthostatic symptoms [Y/N] and finally, decide on their level of disability (1 item). During this visit, they are given pillbox No 1. They are told to start the product under study the next morning, on D1. In fact, the first intake of the dietary supplement can be taken the next morning with breakfast (2 capsules). Pill box No 1 must be returned at visit V2 (D15) to check compliance. A first daily follow-up notebook (follow-up notebook no 1) is given to the patient to record the intake of the food supplement, the concomitant treatments (if applicable) and any undesirable events that may have occurred. Follow-up notebook no 1 should be returned to the investigator at the V2 follow-up visit. The nurse goes to the patient's home 2 days before each follow-up visit in order to carry out the blood test (safety biology), take the hemodynamic constants standing/lying down (after a 2 minute rest): SAP/DAP and HR which is filled in the patient's follow-up notebook. The nurse checks the patient's compliance with the pillbox and the follow-up booklet. The nurse also reminds the patient not to forget to bring back the pill dispenser and the follow-up booklet at each visit. The investigator also takes the hemodynamic constants of the patient standing and lying down (after 2 minutes rest): SAP/DAP and HR. During this consultation, the patient/carer is also asked to answer a specific quality of life questionnaire (MSA-QoL questionnaire). If the patient meets all the eligibility criteria (apart from biology), the neurologist gives them a medical prescription to carry out a biological assessment. This biological assessment must be carried out within 3 days depending on the patient's availability. To do this, a nurse visits the patient at his/her home to collect the biological samples and to send it to the Medical Analysis Laboratories, the local reference laboratory for this research.
During the third visit at D45 and fourth visit at D90, the investigator also carries out a specific complementary clinical examination MSA (validated specific scale: UMSARS) in order to score the patient's level after 3 months of NMN supplementation on 4 axes: activities of daily living (12 items), motor level (14 items), orthostatic hypotension [4 measures: BP standing/sleeping (2 min); HR standing/sleeping (2 min) and orthostatic symptoms Y/N] and finally decide on their level of disability (1 item).

MSA patients [3] = assay: Quality of life, MSA-QoL self-questionnaire; details: for MSA-QoL non-motor subscore, average difference compared to V1: V1 30.4±10.0 points; for MSA-QoL Motor subscore, average difference compared to V1: V1 40.1±19.0 points
Source text: [table] At this visit, the investigator checks the patient's completed follow-up notebook (compliance, adverse event (AE), treatments) and carries out an interrogation and clinical examination, including the taking of standing and lying hemodynamic constants (SAP/DAP and HR) in order to check the tolerance and the possible occurrence of an adverse event. Compliance is also monitored. The patient is asked to complete a quality of life questionnaire (MSA-QoL). Quality of life—MSA—QoL: the MSA-QoL scale is organized into 4 subsections: • Motor sub-score: items 1 to 14; • Non-motor sub-score: items 15 to 26; • Emotional/social sub-score: items 27 to 40. • Overall satisfaction of quality of life of 100 mm to describe the patient's overall satisfaction with their life.

[4] = 3-month supplementation with NMN (400 mg/day) per os, MSA patients, mITT and PP
[5] = at 3 months, mITT and PP populations
[6] = mITT population, V3, p-value >0.05
[7] = mITT population, V4, p-value >0.05

NC(=O)c1ccc[n+]([C@@H]2O[C@H](COP(=O)([O-])O)[C@@H](O)[C@H]2O)c1 [beta-NMN, nicotinamide mononucleotide]
blood levels of NAD [1, 4]: gradually increases
blood levels of NMN [1, 4]: gradually increases
blood NAD level, mean value ([1]; mITT population, V4 (n=8 subjects), NMN 400 mg/day per os, V1 16183.57±4205.09 (n=4 subjects)): 29194.12 ± 9706.95 ng/mL
UMSARS Motor Examination Scale: improved items (MSA patients [2]; NMN 400 mg/day, 3 months): facial expression and tremor at rest
UMSARS activities of daily living: improved items (MSA patients [2]; NMN 400 mg/day, 3 months): speech, writing, eating and handling cutlery, dressing, risk of falling and orthostatic symptoms
UMSARS disability scale score (MSA patients [2]; PP population, 3.5±1.0 points at VO, scale 1 to 5): maintained at V3 and V4
Orthostatic hypotension (OH) (MSA patients [2]; V3 and V4, OH had been detected in these patients at previous visits, other patients unchanged): two patients showed no signs of OH at V3 and V4
functional situation of the patients (MSA patients [2]; at 1.5 months and 3 months, mITT and PP populations): slight improvement
UMSARS motor examination, overall (MSA patients [2]; at 3 months, mITT and PP): did not show any improvement in the motor examination but did not show any deterioration
UMSARS activities of daily living sub-score, change (MSA patients [2]; mITT population, V3 vs VO (16.3±6.8 points)): −0.3 point
UMSARS Motor Examination Scale sub-score, change (MSA patients [2]; mITT population, V3 vs VO (18.5±11.3 points), score 0 to 56, lower is better): −0.6 points
UMSARS Motor Examination Scale sub-score (MSA patients [2]; mITT population, V4, VO 18.5±11.3 points): rises again at V4 to reach the score observed at VO
UMSARS activities of daily living sub-score, change (MSA patients [2]; mITT population, V4 vs VO (16.3±6.8 points)): −1.0 point
UMSARS disability scale score (MSA patients [2]; mITT population, 2.9±1.4 points at VO, scale 1 to 5, lower is more independent): perfectly maintained at V3 and V4
Overall satisfaction with quality of life, scaling (MSA patients [3]; PP population, V3 and V4 compared to V1): slight increase
MSA-QoL Emotional/Social sub-score (MSA patients [3]; [5]): improvement
MSA-QoL Motor subscore (MSA patients [3]; [5]): improvement
MSA-QoL non-motor subscore (MSA patients [3]; [5]): improvement
Overall satisfaction with quality of life, scaling (MSA patients [3]; mITT population, V2, V3 and V4 compared to V1, p-value >0.05): very slight decrease
MSA-QoL non-motor subscore, average difference compared to V1 (MSA patients [3]; mITT population, V2, 0 to 48, higher is worse, p-value >0.05): −2.0 points
MSA-QoL Motor subscore, average difference compared to V1 (MSA patients [3]; mITT population, V2, 0 to 56, higher is worse, p-value >0.05): −1.3 points
MSA-QoL non-motor subscore, average difference compared to V1 (MSA patients [3]; [6]): −5.2 points
MSA-QoL Motor subscore, average difference compared to V1 (MSA patients [3]; [6]): −5.6 points
MSA-QoL non-motor subscore, average difference compared to V1 (MSA patients [3]; [7]): −4.1 points
MSA-QoL Motor subscore, average difference compared to V1 (MSA patients [3]; [7]): −5.1 points
